# Reference: patent US8178668B2, “2-aminopyridine kinase inhibitors” (OSI Pharmaceuticals, LLC, priority 2008, dated 2012)
# How the values were obtained:
# RON (human) = RON (human) (Homo sapiens, UniProt Q04912); assay: RON kinase AlphaScreen assay (Km of ATP); type: biochemical; conditions: ATP at Km; at least duplicate experiments
# How it was run: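 AlphaScreen with PT66 donor/acceptor beads, read after 1 h, detected phosphorylation of biotinylated poly(Glu,Tyr) by human RON. Enzyme-started reactions ran 30 min at room temperature with ATP at Km. Buffer was HEPES pH 7.4 with MgCl2, glycerol, vanadate and 1% DMSO.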
# MET (human) = MET (human) (Homo sapiens, UniProt P08581); assay: MET kinase AlphaScreen assay (Km of ATP); type: biochemical; conditions: ATP at Km; at least duplicate experiments
# MET (human), sequence (P08581 25-1390): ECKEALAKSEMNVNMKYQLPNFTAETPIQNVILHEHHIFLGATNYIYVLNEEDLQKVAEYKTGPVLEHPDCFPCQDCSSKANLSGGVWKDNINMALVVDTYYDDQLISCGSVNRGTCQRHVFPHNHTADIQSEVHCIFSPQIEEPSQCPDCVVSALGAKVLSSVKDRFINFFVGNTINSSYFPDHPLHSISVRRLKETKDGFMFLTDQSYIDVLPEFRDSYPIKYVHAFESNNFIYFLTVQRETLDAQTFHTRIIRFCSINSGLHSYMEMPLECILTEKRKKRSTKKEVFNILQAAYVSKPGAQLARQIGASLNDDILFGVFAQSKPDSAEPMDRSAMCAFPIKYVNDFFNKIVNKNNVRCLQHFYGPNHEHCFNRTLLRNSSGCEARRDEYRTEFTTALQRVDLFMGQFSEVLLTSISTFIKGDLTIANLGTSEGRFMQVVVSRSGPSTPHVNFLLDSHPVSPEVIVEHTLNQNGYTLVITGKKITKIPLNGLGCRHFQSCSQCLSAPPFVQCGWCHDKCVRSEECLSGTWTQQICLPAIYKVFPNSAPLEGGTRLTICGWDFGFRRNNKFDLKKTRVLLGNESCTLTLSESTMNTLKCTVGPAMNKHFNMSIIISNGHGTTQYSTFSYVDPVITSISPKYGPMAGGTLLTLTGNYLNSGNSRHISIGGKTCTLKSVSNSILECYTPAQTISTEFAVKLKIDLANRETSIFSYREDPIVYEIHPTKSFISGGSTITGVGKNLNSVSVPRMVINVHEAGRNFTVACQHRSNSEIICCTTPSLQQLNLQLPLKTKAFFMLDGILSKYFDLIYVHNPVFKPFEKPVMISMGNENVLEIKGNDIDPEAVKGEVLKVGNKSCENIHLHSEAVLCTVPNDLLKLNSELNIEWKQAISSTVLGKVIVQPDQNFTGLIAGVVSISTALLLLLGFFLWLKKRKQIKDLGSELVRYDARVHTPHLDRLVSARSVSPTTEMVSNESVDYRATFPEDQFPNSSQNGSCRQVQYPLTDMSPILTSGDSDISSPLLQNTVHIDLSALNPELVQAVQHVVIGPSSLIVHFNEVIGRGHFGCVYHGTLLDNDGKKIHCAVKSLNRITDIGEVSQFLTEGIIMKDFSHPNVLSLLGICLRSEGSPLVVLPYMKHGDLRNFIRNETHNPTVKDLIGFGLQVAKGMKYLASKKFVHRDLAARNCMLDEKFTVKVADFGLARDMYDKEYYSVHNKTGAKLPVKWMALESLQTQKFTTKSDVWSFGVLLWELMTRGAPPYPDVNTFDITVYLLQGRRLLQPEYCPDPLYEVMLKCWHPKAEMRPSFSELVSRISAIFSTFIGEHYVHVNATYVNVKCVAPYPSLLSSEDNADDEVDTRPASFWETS
# How it was run: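 AlphaScreen detection with PT66 beads (1 h) follows a 60 min room-temperature MET reaction. Substrate is 200 ng/μL biotinylated poly(Glu,Tyr), with ATP set at an enzyme-optimized concentration. Buffer is HEPES pH 7.4 with MgCl2, MnCl2 and 0.334 mM vanadate, compounds at 1% DMSO.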
# RON (human), sequence (Q04912 25-1400): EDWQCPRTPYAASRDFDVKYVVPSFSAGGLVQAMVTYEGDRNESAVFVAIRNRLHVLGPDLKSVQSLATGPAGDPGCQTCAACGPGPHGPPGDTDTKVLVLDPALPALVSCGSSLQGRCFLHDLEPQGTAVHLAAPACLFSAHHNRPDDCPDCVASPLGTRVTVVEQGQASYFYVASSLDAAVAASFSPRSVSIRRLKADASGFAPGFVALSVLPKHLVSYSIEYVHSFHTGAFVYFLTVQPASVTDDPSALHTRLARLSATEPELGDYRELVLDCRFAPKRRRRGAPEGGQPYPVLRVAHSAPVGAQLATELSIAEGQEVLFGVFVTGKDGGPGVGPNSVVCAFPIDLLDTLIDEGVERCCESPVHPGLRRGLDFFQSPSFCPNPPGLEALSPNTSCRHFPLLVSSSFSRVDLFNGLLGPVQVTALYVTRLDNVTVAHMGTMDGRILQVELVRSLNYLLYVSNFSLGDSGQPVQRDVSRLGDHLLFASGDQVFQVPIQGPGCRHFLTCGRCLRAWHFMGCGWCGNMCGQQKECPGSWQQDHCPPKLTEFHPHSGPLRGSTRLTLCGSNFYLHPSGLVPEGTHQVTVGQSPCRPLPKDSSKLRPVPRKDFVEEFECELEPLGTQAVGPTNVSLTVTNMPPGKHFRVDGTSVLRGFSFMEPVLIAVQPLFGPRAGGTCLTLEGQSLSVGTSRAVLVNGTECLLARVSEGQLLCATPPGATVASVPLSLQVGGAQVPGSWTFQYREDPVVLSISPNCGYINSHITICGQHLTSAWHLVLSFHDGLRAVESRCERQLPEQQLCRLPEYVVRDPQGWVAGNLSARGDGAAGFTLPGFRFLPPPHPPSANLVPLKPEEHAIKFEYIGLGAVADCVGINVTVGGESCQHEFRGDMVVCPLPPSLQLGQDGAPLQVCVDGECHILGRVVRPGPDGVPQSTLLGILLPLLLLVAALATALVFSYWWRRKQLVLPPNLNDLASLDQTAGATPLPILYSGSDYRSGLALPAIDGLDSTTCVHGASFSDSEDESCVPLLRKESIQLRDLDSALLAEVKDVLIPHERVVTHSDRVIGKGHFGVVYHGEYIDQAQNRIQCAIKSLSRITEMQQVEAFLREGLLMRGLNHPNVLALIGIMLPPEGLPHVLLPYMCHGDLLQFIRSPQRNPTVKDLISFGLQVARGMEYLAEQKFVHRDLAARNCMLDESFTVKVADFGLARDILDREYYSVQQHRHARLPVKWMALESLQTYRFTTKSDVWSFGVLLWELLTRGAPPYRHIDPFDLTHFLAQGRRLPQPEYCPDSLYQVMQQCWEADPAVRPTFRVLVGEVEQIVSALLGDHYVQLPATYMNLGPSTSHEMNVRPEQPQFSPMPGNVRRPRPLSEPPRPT
SMILES,IC50 (RON (human)) [nM],IC50 (MET (human)) [nM]
"CNC(=O)Cn1cc(-c2cnc(N)c(-c3nc4ccccc4s3)c2)cn1 [Example 137, 2-[4-(6-Amino-5-benzothiazol-2-ylpyridin-3-yl)-pyrazol-1-yl]-N-methylacetamide]",> 20000,> 20000
"CN(C)C(=O)Cn1cc(-c2cnc(N)c(-c3nc4ccccc4s3)c2)cn1 [Example 140, 2-[4-(6-Amino-5-benzothiazol-2-ylpyridin-3-yl)-pyrazol-1-yl]-N,N-dimethylacetamide]",1000 to 20000,1000 to 20000
"Nc1ncc(-c2cnn(CC(=O)N3CCCCC3)c2)cc1-c1nc2ccccc2s1 [Example 141, 2-[4-(6-Amino-5-benzothiazol-2-ylpyridin-3-yl)-pyrazol-1-yl]-1-piperidin-1-ylethanone]",1000 to 20000,1000 to 20000
"CC(C(=O)N1CCOCC1)n1cc(-c2cnc(N)c(-c3nc4ccccc4s3)c2)cn1 (stereo not shown) [Example 142, 2-[4-(6-Amino-5-benzothiazol-2-ylpyridin-3-yl)-pyrazol-1-yl]-1-morpholin-4-ylpropan-1-one]",1000 to 20000,1000 to 20000
"COCCN(CCOC)C(=O)C(C)n1cc(-c2cnc(N)c(-c3nc4ccccc4s3)c2)cn1 (stereo not shown) [Example 143, 2-[4-(6-Amino-5-benzothiazol-2-ylpyridin-3-yl)-pyrazol-1-yl]-N,N-bis-(2-methoxyethyl)-propionamide]",1000 to 20000,1000 to 20000
"CNC(=O)C(C)n1cc(-c2cnc(N)c(-c3nc4ccccc4s3)c2)cn1 (stereo not shown) [Example 144, 2-[4-(6-Amino-5-benzothiazol-2-ylpyridin-3-yl)-pyrazol-1-yl]-N-methylpropionamide]",1000 to 20000,1000 to 20000
"CC(C(N)=O)n1cc(-c2cnc(N)c(-c3nc4ccccc4s3)c2)cn1 (stereo not shown) [Example 145, 2-[4-(6-Amino-5-benzothiazol-2-ylpyridin-3-yl)-pyrazol-1-yl]-propionamide]",1000 to 20000,100 to 1000
"COCCNC(=O)C(C)n1cc(-c2cnc(N)c(-c3nc4ccccc4s3)c2)cn1 (stereo not shown) [Example 146, 2-[4-(6-Amino-5-benzothiazol-2-ylpyridin-3-yl)-pyrazol-1-yl]-N-(2-methoxyethyl)-propionamide]",1000 to 20000,1000 to 20000
"CC(C(=O)NCCO)n1cc(-c2cnc(N)c(-c3nc4ccccc4s3)c2)cn1 (stereo not shown) [Example 147, 2-[4-(6-Amino-5-benzothiazol-2-ylpyridin-3-yl)-pyrazol-1-yl]-N-(2-hydroxyethyl)-propionamide]",1000 to 20000,1000 to 20000
"CC(C(=O)N(C)C)n1cc(-c2cnc(N)c(-c3nc4ccccc4s3)c2)cn1 (stereo not shown) [Example 148, 2-[4-(6-Amino-5-benzothiazol-2-ylpyridin-3-yl)-pyrazol-1-yl]-N,N-dimethylpropionamide]",1000 to 20000,1000 to 20000
"CC(C(=O)N1CCC(O)C1)n1cc(-c2cnc(N)c(-c3nc4ccccc4s3)c2)cn1 (stereo not shown) [Example 149, 2-[4-(6-Amino-5-benzothiazol-2-ylpyridin-3-yl)-pyrazol-1-yl]-1-(3-hydroxypyrrolidin-1-yl)-propan-1-one]",1000 to 20000,1000 to 20000
"CC(C(=O)N1CCCCC1)n1cc(-c2cnc(N)c(-c3nc4ccccc4s3)c2)cn1 (stereo not shown) [Example 152, 2-[4-(6-Amino-5-benzothiazol-2-ylpyridin-3-yl)-pyrazol-1-yl]-1-piperidin-1-ylpropan-1-one]",1000 to 20000,1000 to 20000
"Nc1ncc(-c2cnn(CCC(=O)N3CCCC3)c2)cc1-c1nc2ccccc2s1 [Example 153, 3-[4-(6-Amino-5-benzothiazol-2-ylpyridin-3-yl)-pyrazol-1-yl]-1-pyrrolidin-1-ylpropan-1-one]",> 20000,100 to 1000

# Continued, values first:
IC50 (RON (human)) [nM],IC50 (MET (human)) [nM],SMILES
1000 to 20000,1000 to 20000,"Nc1ncc(-c2cnn(CC(=O)N3CCCC3)c2)cc1-c1nc2ccccc2s1 [Example 133, 2-[4-(6-Amino-5-benzothiazol-2-ylpyridin-3-yl)-pyrazol-1-yl]-1-pyrrolidin-1-ylethanone]"
1000 to 20000,1000 to 20000,"COCCNC(=O)Cn1cc(-c2cnc(N)c(-c3nc4ccccc4s3)c2)cn1 [Example 134, 2-[4-(6-Amino-5-benzothiazol-2-ylpyridin-3-yl)-pyrazol-1-yl]-N-(2-methoxyethyl)-acetamide]"
1000 to 20000,1000 to 20000,"Nc1ncc(-c2cnn(CC(=O)N3CCC(O)C3)c2)cc1-c1nc2ccccc2s1 (stereo not shown) [Example 135, 2-[4-(6-Amino-5-benzothiazol-2-ylpyridin-3-yl)-pyrazol-1-yl]-1-(3-hydroxypyrrolidin-1-yl)-ethanone]"
1000 to 20000,1000 to 20000,"Nc1ncc(-c2cnn(CC(=O)NCCO)c2)cc1-c1nc2ccccc2s1 [Example 136, 2-[4-(6-Amino-5-benzothiazol-2-ylpyridin-3-yl)-pyrazol-1-yl]-N-(2-hydroxyethyl)-acetamide]"
1000 to 20000,1000 to 20000,"COCCN(CCOC)C(=O)Cn1cc(-c2cnc(N)c(-c3nc4ccccc4s3)c2)cn1 [Example 138, 2-[4-(6-Amino-5-benzothiazol-2-ylpyridin-3-yl)-pyrazol-1-yl]-N,N-bis-(2-methoxyethyl)-acetamide]"
1000 to 20000,1000 to 20000,"Nc1ncc(-c2cnn(CC(=O)N3CCC(O)CC3)c2)cc1-c1nc2ccccc2s1 [Example 139, 2-[4-(6-Amino-5-benzothiazol-2-ylpyridin-3-yl)-pyrazol-1-yl]-1-(4-hydroxypiperidin-1-yl)-ethanone]"
100 to 1000,100 to 1000,"CC(C(=O)N1CCC(O)CC1)n1cc(-c2cnc(N)c(-c3nc4ccccc4s3)c2)cn1 (stereo not shown) [Example 150, 2-[4-(6-Amino-5-benzothiazol-2-ylpyridin-3-yl)-pyrazol-1-yl]-1-(4-hydroxypiperidin-1-yl)-propan-1-one]"
100 to 1000,100 to 1000,"CC(C(=O)N1CCCC1)n1cc(-c2cnc(N)c(-c3nc4ccccc4s3)c2)cn1 (stereo not shown) [Example 151, 2-[4-(6-Amino-5-benzothiazol-2-ylpyridin-3-yl)-pyrazol-1-yl]-1-pyrrolidin-1-ylpropan-1-one]"
100 to 1000,≤ 100,"Nc1ncc(-c2cnn([C@@H]3CN[C@H](C(=O)O)C3)c2)cc1-c1nc2ccccc2s1 [Example 154, (2S,4S)-4-[4-(6-Amino-5-benzothiazol-2-ylpyridin-3-yl)-pyrazol-1-yl]-pyrrolidine-2-carboxylic acid]"
100 to 1000,≤ 100,"CN(C)C(=O)[C@@H]1C[C@H](n2cc(-c3cnc(N)c(-c4nc5ccccc5s4)c3)cn2)CN1 [Example 155, (2S,4S)-4-[4-(6-Amino-5-benzothiazol-2-ylpyridin-3-yl)-pyrazol-1-yl]-pyrrolidine-2-carboxylic acid dimethylamide]"
≤ 100,≤ 100,"Nc1ncc(-c2cnn([C@@H]3CN[C@H](C(=O)N4CCCC4)C3)c2)cc1-c1nc2ccccc2s1 [Example 156, {(2S,4S)-4-[4-(6-Amino-5-benzothiazol-2-ylpyridin-3-yl)-pyrazol-1-yl]-pyrrolidin-2-yl}-pyrrolidin-1-ylmethanone]"
≤ 100,≤ 100,"Nc1ncc(-c2cnn([C@@H]3CN[C@H](C(=O)N4CCOCC4)C3)c2)cc1-c1nc2ccccc2s1 [Example 157, {(2S,4S)-4-[4-(6-Amino-5-benzothiazol-2-ylpyridin-3-yl)-pyrazol-1-yl]-pyrrolidin-2-yl}-morpholin-4-ylmethanone]"
≤ 100,≤ 100,"Nc1ncc(-c2cnn([C@@H]3CN[C@H](C(=O)N4CCCCC4)C3)c2)cc1-c1nc2ccccc2s1 [Example 158, {(2S,4S)-4-[4-(6-Amino-5-benzothiazol-2-ylpyridin-3-yl)-pyrazol-1-yl]-pyrrolidin-2-yl}-piperidin-1-ylmethanone]"
≤ 100,≤ 100,"Nc1ncc(-c2cnn([C@@H]3CN[C@H](C(=O)N4CCC(O)C4)C3)c2)cc1-c1nc2ccccc2s1 (stereo partly drawn) [Example 159, {(2S,4S)-4-[4-(6-Amino-5-benzothiazol-2-ylpyridin-3-yl)-pyrazol-1-yl]-pyrrolidin-2-yl}-(3-hydroxypyrrolidin-1-yl)-methanone]"
100 to 1000,≤ 100,"Nc1ncc(-c2cnn([C@@H]3CN[C@H](C(=O)N4CCC4)C3)c2)cc1-c1nc2ccccc2s1 [Example 160, {(2S,4S)-4-[4-(6-Amino-5-benzothiazol-2-ylpyridin-3-yl)-pyrazol-1-yl]-pyrrolidin-2-yl}-azetidin-1-ylmethanone]"
100 to 1000,≤ 100,"Nc1ncc(-c2cnn(C3CCN(CC(=O)O)CC3)c2)cc1-c1nc2ccccc2s1 [Example 161, {4-[4-(6-Amino-5-benzothiazol-2-ylpyridin-3-yl)-pyrazol-1-yl]-piperidin-1-yl}-acetic acid]"
100 to 1000,≤ 100,"NC(=O)CN1CCC(n2cc(-c3cnc(N)c(-c4nc5ccccc5s4)c3)cn2)CC1 [Example 162, 2-{4-[4-(6-Amino-5-benzothiazol-2-ylpyridin-3-yl)-pyrazol-1-yl]-piperidin-1-yl}-acetamide]"
100 to 1000,100 to 1000,"CNC(=O)CN1CCC(n2cc(-c3cnc(N)c(-c4nc5ccccc5s4)c3)cn2)CC1 [Example 163, 2-{4-[4-(6-Amino-5-benzothiazol-2-ylpyridin-3-yl)-pyrazol-1-yl]-piperidin-1-yl}-N-methylacetamide]"
100 to 1000,100 to 1000,"CN(C)C(=O)CN1CCC(n2cc(-c3cnc(N)c(-c4nc5ccccc5s4)c3)cn2)CC1 [Example 164, 2-{4-[4-(6-Amino-5-benzothiazol-2-ylpyridin-3-yl)-pyrazol-1-yl]-piperidin-1-yl}-N,N-dimethylacetamide]"
